Data taken from patent US12503483B2, “Gemcitabine amphiphile prodrugs” (NANOMED HOLDINGS PTY LTD, priority 2018, dated 2025).
Where two headings read alike, the source gives them in different places.

What was measured:
[1] = Water penetration scan by polarized optical microscopy (POM); assay type: physicochemical; details: for Appearance of the Lyotropic phase at excess water (25° C.-50° C.): POM, equilibration 1 h; for Lyotropic phase formed in water penetration scan: neat amphiphile to pure water gradient, temperature as worded
Method: Polarized Optical Microscopy (POM): Samples used for Polarized Optical Microscopy (POM) were prepared by placing a small amount of prodrug amphiphile on a microscope slide and covered with a cover slip. Water was placed on the edges of the cover slip and allowed to flow into the sample by capillary action. The microscope slide was placed in a Linkam PE94 hot stage (Linkam Scientific Instruments Ltd. Surrey, England) and heated at 3° C./min between room temperature and 50° C. […] Images were captured with a Nikon DS-Ri-1 camera. All images were taken at 100× magnification.
(§1) The results of the water penetration scans and SAXS are summarised in Tables 1 and 2 and indicate that various self-assembled lyotropic liquid crystalline phases were formed for the different Gem apmphiphiles, with a broad range of mesophases from lamellar crystalline structure to lamellar liquid crystalline, cubic mesophases and sponge mesophases.
The textures obtained from water penetration scans along the established concentration gradient from neat amphiphile to pure water provide a quick insight into the lyotropic phase behaviour of a surfactant/water system. Melted neat amphiphile was placed on a microscopic slide and water was then introduced around the edge.

[2] = SAXS phase behaviour of hydrated Gem amphiphiles; assay type: physicochemical; details: equilibration 48 h
Method: SAXS analyses of the bulk and lyotropic phases of the amphiphiles were performed on a Bruker NanoSTAR laboratory SAXS instrument (Brucker AXS, Kalsruhe, Germany).
The equilibrated lyotropic phases were placed into a demountable button sample cells. For the analysis of the dispersions, a multi-capillary holder was used. Button cells and capillary holder interchangeably fit into a block setup that was temperature-controlled with a Peltier heater-cooler system. 2D scattering images were radially averaged to conventional 1 D scattering plots and as a function of the q value (Å-1) where q is the length of the scattering vector which was calculated using the formula q=(4π/λ)sin(θ/2), where A is the wavelength and 6 is the scattering angle.
The mesophases formed were determined by indexing peaks using the reflection laws as described by De Campo et al., Langmuir, 2004. 20(13), 5254-5261. Small angle X-ray scattering patterns of emulsions and liposomes display large broad peaks while liquid crystalline phases of highly ordered nanostructured particles such as cubosomes and hexosomes display distinct sharp peaks. The relative positions of the peaks (“spacing”) allows for the elucidation of the symmetry of the structure. The interplanar distance (d) between two reflecting planes may be calculated using the formula d=(2π)/q, where q is the absolute position of the peak. This, in turn allows for the calculation of the lattice parameter (a), the size of the unit cell, to be calculated.
as §1

MCF7 cell line = experiment: MTS cytotoxicity assay, 72 hours; assay type: cell-based; details: MCF7, 72 hours, prodrugs as nanoparticle dispersions
Method: (§2) The cytotoxicity of gemcitabine nanoparticles dispersion made from gemcitabine amphiphiles in the presence or absence of DMPC-cholesterol was evaluated in comparison to gemcitabine alone in several pancreatic cell lines including CF Pac-1, BxPC3, Panc-1 and MIA PaCa-2, MCF7and CACO2 cell lines. The cell lines were exposed to media with varying concentrations of the treatments (100-0.001 μM) and incubated for 72 hours. Cell viability was determined using the MTS assay and was conducted in triplicate to derive the IC50 values.

CACO2 cell line = experiment: MTS cytotoxicity assay, 72 hours; assay type: cell-based; details: prodrugs as nanoparticle dispersions
Method: as §2

CFPAC-1 cell line [3] = experiment: MTS cytotoxicity assay, 72 hours; assay type: cell-based; details: CFPAC-1, 72 hours, prodrugs as nanoparticle dispersions
Method: as §2

[4] = system: Carboxylesterase from porcine liver; experiment: In-situ enzymatic bioconversion of prodrug nanoparticles (LC/MS); assay type: in vitro ADME; details: DMPC/cholesterol nanoparticles, 50 uM prodrug, 33.7 units/mL, 37° C.; for Bioconversion to Gemcitabine: FIG. 7b
Method: Nanoparticle dispersions of a mixture of Dimyristoylphosphatidylcholine and cholesterol with either (i) Gemcitabine-Phytanyl, (ii) Gemcitabine-PEG3-oleoyl or (iii) Gemcitabine-PEG3-oleoylamide were made at […] concentration of Gemcitabine prodrugs. Carboxylesterase solution from porcine liver obtained from Sigma-Aldrich was added to the nanoparticle dispersions, and the enzyme concentration in each respective nanoparticle dispersion was set to 33.7 units/mL.
The time at which the enzyme solution was added was taken as time zero for the hydrolysis reaction. The mixture was maintained at 37° C. throughout the experiment. The concentration of the hydrolysis product was measured at various time intervals using LC/MS and LC/MS^2 for the detection of prodrug converted to the active drug Gemcitabine. The time at which the sample was injected into the LC column was taken to be the reaction time for such sample. The hydrolysis progress curve, showing the decrease in the concentration of original substrate was plotted against time, whereas the bioconversion to Gemcitabine was determined by MS^2 methods. Standard curves for both prodrugs and the active bioconverted gemcitabine was assessed by using standard samples.
Thermo Finnigan (Finnigan LCQ Series, Thermo Scientific, USA) LC/MS equipped with an electron spray ionization (ESI) was used to assess the enzymatic reaction using both MS and MS^2 mode. The prodrug depletion was detected by negative ion for MS. The conversion of the prodrug to the Gemcitabine was detected by MS^2 at 112.1. 10 μl of sample withdrawn from the reaction solution was injected directly into a Phenomenex C8 150 mm×2 mm 5 uLuna column (Phenomenex, Australia). A 100% Methanol solution was used as mobile phase with the flow rate of 0.5 ml/min. The sample after the column separation was eluted to ESI source. The capillary temperature and ion spray voltage were set at 350° C. and 4.60 respectively. The sample temperature was well maintained at 37° C. during the entire measurement by incubating the samples in the temperature controlled auto-sampler. Data were acquired and processed with Xcalibur Quan chromatography software.
The decreased prodrug was calculated as the percentage of the area under the peak of Gemcitabine-prodrug compared to that before addition of the enzyme. The amount of Gemcitabine produced, was calculated from the area under the peak at 3.4 min related to Gemcitabine at 263 and its MS^2 at 112.1.

MIAPaCa-2 cell line = experiment: MTS cytotoxicity assay, 72 hours; assay type: cell-based; details: Homo sapiens, MIA PaCa-2, MIAPaCa-2, 72 hours
Method: as §2

PANC-1 cell line = experiment: MTS cytotoxicity assay, 72 hours; assay type: cell-based; details: Homo sapiens, PANC-1, 72 hours
Method: as §2

BxPC3 cell line = experiment: MTS cytotoxicity assay, 72 hours; assay type: cell-based; details: Homo sapiens, BXPC-3, BxPC3, 72 hours
Method: as §2

[5] = system: CFPAC-1 cell line-derived xenograft; experiment: In vivo tumour inhibition, CFPAC-1 xenograft; set-up: species or system mice
Method: All treatments were administered via IV injection twice a week for four weeks. The amount of gemcitabine administered in the Gem nanoparticles was 4.45 mg/kg, which is an order of magnitude less than the ordinary dose used in clinic. The doses were equimolar with the gemcitabine control group in order to allow for a direct comparison of the anti-tumour efficacy between groups. The amount of total lipid injected was 1 mg/dose. Gemcitabine is administered intravenously at a dose of 1000 mg/m2 to treat pancreatic cancer in humans. The dose administered here is equivalent to 13.35 mg/m2 of gemcitabine being injected into humans; 1.33% of the clinical dose of gemcitabine in humans. In other studies, the amount of gemcitabine injected into mice in vivo studies has ranged from 7-100 mg/kg.
At the end of the study, the tumours were harvested.

CFPAC-1 cell line [6] = details: 72 hours; read-out: IC50 of gemcitabine against the CFPAC-1 cell line; cited from earlier work

Appearance of the Lyotropic phase at excess water (25° C.-50° C.) [1]	Lyotropic phase lattice parameter ([2]; 25° C.)	Lyotropic phase lattice parameter ([2]; 37° C.)	Lyotropic phase ([2]; 25° C.)	Lyotropic phase ([2]; 37° C.)	Prodrug reduction (hydrolysis) by CES enzyme [4]	SMILES	other results
A birefringent band (LC)	53.2 ± 0.5 Å	53.2 ± 0.5 Å				CCCCC/C=C\C/C=C\CCCCCCCCOC(=O)Nc1ccn([C@@H]2O[C@H](CO)[C@@H](O)C2(F)F)c(=O)n1 (relative stereo) [Gem-Lin, 2′-deoxy-2′,2′-difluoro-N4-(((cis-9,12,octadecadienenyl)oxy)carbonyl) cytidine]	
Anisotropic band						CCCCCCCC/C=C\CCCCCCCCOC(=O)Nc1ccn([C@@H]2O[C@H](CO)[C@@H](O)C2(F)F)c(=O)n1 (relative stereo) [Gem-Ole, 2′-deoxy-2′,2′-difluoro-N4-(((cis-9, octadecenyl)oxy)carbonyl) cytidine]	Lyotropic phase formed in water penetration scan [1]: traditional lamellar (La) phase at room temperature and 3D cubic (Pn3m) phase at elevated temperatures above 33 °C
An isotropic band, emulsion			Sponge phase (L3)	Sponge phase (L3)		CCCCC/C=C\C/C=C\CCCCCCCC(=O)OCCOCCOCCOC(=O)Nc1ccn([C@@H]2O[C@H](CO)[C@@H](O)C2(F)F)c(=O)n1 (relative stereo) [Gem-PEG3-linoleoyl, 2′-deoxy-2′,2′-difluoro-N4-((((cis-9, cis-12-octadecadienoyl)-oxy-triethyleneglycol)oxy)carbonyl) cytidine]	IC50 (MCF7 cell line): 100 nM; IC50 (CACO2 cell line; CACO2, 72 hours): 200 nM; IC50 (CFPAC-1 cell line [3]): 583 nM
					reduced at a lower rate	CCCCCCCC/C=C\CCCCCCCC(=O)NCCOCCOCCOC(=O)Nc1ccn([C@@H]2O[C@H](CO)[C@@H](O)C2(F)F)c(=O)n1 (relative stereo) [Gem-PEG3-oleoylamide, 2′-deoxy-2′,2′-difluoro-N4-((((cis-9, octadecenoyl)amino-triethyleneglycol)oxy)carbonyl) cytidine]	Time of prodrug reduction ([4]; FIG. 7a): 6 h; Bioconversion to Gemcitabine [4]: produced Gemcitabine sustainably
Emulsion			Sponge phase (L3)			CC/C=C\C/C=C\C/C=C\CCCCCCCC(=O)OCCOCCOCCOCCOCCOCCOC(=O)Nc1ccn([C@@H]2O[C@H](CO)[C@@H](O)C2(F)F)c(=O)n1 (relative stereo) [Gem-PEG6-linolenoyl, 2′-deoxy-2′,2′-difluoro-N4-((((cis-9, 12, 15 octadecatrienoyl)-oxy-hexaethyleneglycol)oxy)carbonyl) cytidine]	
An isotropic band, cubic phase	125.2 ± 0.5 Å	124.4 ± 0.5 Å	Ia3d	Ia3d		CCCCCCCC/C=C\CCCCCCCC(=O)OCCOCCOCCOCCOCCOCCOC(=O)Nc1ccn([C@@H]2O[C@H](CO)[C@@H](O)C2(F)F)c(=O)n1 (relative stereo) [Gem-PEG6-oleoyl, 2′-deoxy-2′,2′-difluoro-N4-((((cis-9, octadecenoyl)-oxy-hexaethyleneglycol)oxy)carbonyl) cytidine]	
An isotropic band	135.8 ± 0.5 Å	135.8 ± 0.5 Å	Ia3d	Ia3d	slowest prodrug to reduce completely	CC(C)CCCC(C)CCCC(C)CCCC(C)CCOC(=O)Nc1ccn([C@@H]2O[C@H](CO)[C@@H](O)C2(F)F)c(=O)n1 (stereo partly shown) [Gem-Phy, 2′-deoxy-2′,2′-difluoro-N4-(((3,7,11,15-tetramethyl-hexadecyl)oxy)carbonyl) cytidine]	Lyotropic phase formed in water penetration scan [1]: 3D inversed bicontinous cubic phase (Pn3m space group) initially and then transform to 2D hexagonal phase
						Nc1ccn([C@@H]2O[C@H](CO)[C@@H](O)C2(F)F)c(=O)n1 [Gemcitabine, 2′,2′-difluoro-2′-deoxycytidine]	IC50 (MCF7 cell line; Homo sapiens): 6 nM; IC50 (CACO2 cell line; Homo sapiens, Caco-2, CACO2, 72 hours): 50 nM; IC50 (MIAPaCa-2 cell line): 23 nM; IC50 (CFPAC-1 cell line [3]; Homo sapiens): 65 nM; IC50 (PANC-1 cell line): > 100000 nM; IC50 (BxPC3 cell line): 22.5 nM; Tumour size trend over time ([5]; 4.45 mg/kg gemcitabine equimolar, IV twice a week for four weeks): increased in size, however at a slower rate compared with the control PBS group; Tumour volume as % of control tumour size ([5]; 4.45 mg/kg gemcitabine equimolar, IV twice a week for four weeks, 34 days): 54%; Average ex-vivo tumour weight, order of groups ([5]; end of study, control vs nanoparticles p<0.05): control group>Gemcitabine group>Gemcitabine nanoparticles; IC50 (CFPAC-1 cell line [6]): 6.1 to 33 nM

SMILES	Appearance of the Lyotropic phase at excess water (25° C.-50° C.) [1]	Lyotropic phase lattice parameter ([2]; 25° C.)	Lyotropic phase lattice parameter ([2]; 37° C.)	Lyotropic phase ([2]; 25° C.)	Lyotropic phase ([2]; 37° C.)	Prodrug reduction (hydrolysis) by CES enzyme [4]	other results
CCCCCCCC/C=C\CCCCCCCC(=O)OCCOCCOCCOC(=O)Nc1ccn([C@@H]2O[C@H](CO)[C@@H](O)C2(F)F)c(=O)n1 (relative stereo) [Gem-PEG3-oleoyl, 2′-deoxy-2′,2′-difluoro-N4-((((cis-9, octadecenoyl)oxy-triethyleneglycol)oxy)carbonyl) cytidine]	Birefringent ( lamellar)	55.26 ± 0.5 Å	55.26 ± 0.5 Å			reduced to Gem-PEG3 and the oleic acid quickly	Bioconversion to Gemcitabine [4]: bioconverted Gemcitabine very slowly
